According to the supplement of paper PMC10307832:

Assays:
Test in all cases: relative viability (nuclei count vs DMSO), 5 days (fraction); higher = more cells survive
[1] = compound: Cc1ccc(-n2nc(C(C)(C)C)cc2NC(=O)Nc2ccc(OCCN3CCOCC3)c3ccccc23)cc1 [Doramapimod]
Method in brief: (§1)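 After an overnight hold at 37 °C, lung cancer cell lines in 1536-well plates were pinned with five library-drug doses (not always all listed), each √10 from the next, on vehicle-anchored plates. The cells stayed 5 days without fresh medium, then a one-step fix, permeabilisation and Hoechst stain preceded 4× imaging and MetaXpress nuclear counts. A plate passed only with control CV under 25% and at least one doubling. Viability is the median, over plates, of treated-well nuclei relative to vehicle-well nuclei.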

[2] = compound: C1=CC=C2C(=C1)C=CC(=C2SSC3=C(C=CC4=CC=CC=C43)O)O [IPA-3]
Method in brief: as §1

[3] = compound: Cn1c(Nc2ccc(C(F)(F)F)cc2)nc2cc(Oc3ccnc(-c4ncc(C(F)(F)F)[nH]4)c3)ccc21 [RAF265]
Method in brief: as §1

Row | Cell Line | relative viability ([1]; 0.02 µM) | relative viability ([1]; 0.06325 µM) | relative viability ([1]; 0.2 µM) | relative viability ([1]; 0.6325 µM) | relative viability ([1]; 2 µM) | relative viability ([2]; 0.2 µM) | relative viability ([2]; 0.6325 µM) | relative viability ([2]; 2 µM) | relative viability ([2]; 6.325 µM) | relative viability ([2]; 20 µM) | relative viability ([3]; 0.01 µM) | relative viability ([3]; 0.03162 µM) | relative viability ([3]; 0.1 µM) | relative viability ([3]; 1 µM) | relative viability ([3]; 0.3162 µM)
1 | HCC-827 | 1.02 | 1.05 | 1.07 | 0.902 | 0.863 | 1.07 | 1.05 | 1.05 | 0.955 | 0.978 | 1.03 | 0.963 | 1.05 | 0.903 | 
2 | HOP-62 | 1.02 | 1.06 | 1.08 | 0.931 | 0.975 | 1.08 | 0.925 | 0.986 | 1 | 1.09 | 1.12 | 0.989 | 0.952 | 0.834 | 1
3 | IA-LM | 0.921 | 0.977 | 0.906 | 0.982 | 0.913 | 1.15 | 0.758 | 1.03 | 0.876 | 0.892 | 0.941 | 0.855 | 0.91 | 0.755 | 0.801
4 | LC-2-ad | 0.991 | 1.02 | 1.07 | 1.02 | 0.923 | 1.05 | 0.958 | 0.978 | 1.03 | 0.992 | 1.09 | 0.989 | 1.11 | 0.484 | 0.748
5 | LCLC-97TM1 | 0.916 | 1.04 | 0.961 | 0.811 | 0.86 | 1.04 | 0.868 | 0.851 | 0.908 | 0.981 | 1.04 | 0.899 | 0.531 | 0.418 | 0.637
6 | LCLC-103H | 1.02 | 1.01 | 0.887 | 0.988 | 0.929 | 1.12 | 0.962 | 0.876 | 0.99 | 1.07 | 1.01 | 1.05 | 0.919 | 0.72 | 0.78
7 | LK-2 | 0.909 | 0.981 | 0.926 | 0.741 | 0.849 | 1.06 | 1.03 | 0.995 | 1.01 | 1.19 | 0.963 | 1 | 1.09 | 0.714 | 1.07
8 | LOU-NH91 | 1.09 | 0.996 | 1.05 | 1.08 | 0.691 | 0.953 | 0.94 | 1.01 | 1.01 | 1.19 | 1.05 | 0.976 | 0.905 | 0.753 | 0.733
9 | LU99A | 0.944 | 0.906 | 1.03 | 1 | 0.949 | 1.02 | 0.89 | 0.932 | 0.919 | 0.98 | 0.971 | 0.987 | 0.705 | 0.373 | 0.492
10 | LXF-289 | 0.999 | 0.986 | 1.01 | 0.982 | 0.943 | 1.08 | 0.999 | 1.04 | 1.06 | 1.13 | 1.02 | 1.1 | 0.976 | 0.768 | 0.807
11 | NCI-H23 | 0.966 | 1.04 | 1.06 | 0.864 | 0.946 | 1.08 | 0.944 | 0.895 | 0.917 | 0.923 | 0.966 | 0.847 | 0.906 | 0.41 | 0.416
12 | NCI-H322M | 1.05 | 0.993 | 0.998 | 1.3 | 0.937 | 1.01 | 0.902 | 1.02 | 1.03 | 1 | 1.04 | 1 | 0.597 | 0.282 | 0.38
13 | NCI-H358 | 0.873 | 0.881 | 0.973 | 0.923 | 0.88 | 1.06 | 0.892 | 0.917 | 0.965 | 0.949 | 1.03 | 0.903 | 0.686 | 0.262 | 0.382
14 | NCI-H441 | 0.999 | 0.845 | 1.08 | 1.06 | 0.859 | 1.37 | 0.951 | 0.896 | 1.04 | 0.915 | 1.01 | 0.928 | 1.08 | 0.753 | 0.78
15 | NCI-H460 | 0.994 | 0.999 | 1.04 | 1.05 | 0.972 | 1.2 | 0.967 | 0.921 | 0.945 | 0.993 | 1.02 | 0.968 | 1.09 | 0.965 | 0.971
16 | NCI-H520 | 0.943 | 0.933 | 0.941 | 0.88 | 0.868 | 1.07 | 0.888 | 0.916 | 1.03 | 0.929 | 1.11 | 0.869 | 1.03 | 0.614 | 1.02
17 | NCI-H522 | 0.946 | 0.978 | 0.79 | 0.925 | 0.86 | 1.05 | 0.889 | 0.978 | 1.07 | 1.08 | 1.15 | 1.1 | 0.941 | 0.961 | 0.812
18 | NCI-H596 | 1.02 | 1.12 | 0.957 | 0.92 | 0.984 | 0.934 | 0.989 | 0.977 | 1.13 | 1.2 | 1.28 | 0.987 | 1.07 | 0.829 | 1.03
19 | NCI-H647 | 1.05 | 1.03 | 1.07 | 0.995 | 0.913 | 1.27 | 0.906 | 0.88 | 0.758 | 0.568 | 0.931 | 0.974 | 0.886 | 0.505 | 0.645
